The results in this text go back to patent US20260265244A1, “HETEROCYCLIC COMPOUNDS AS STING ANTAGONISTS” (Boehringer Ingelheim International GmbH, priority 2022, published 2026).

Structures are written as SMILES.

Assay [1] has as its target T1, cGAMP binding domain of wild-type (GRR) human STING, residues 155-341 (Homo sapiens, UniProt Q86WV6, H232R).
T1 construct: His-TEV-hSTING (WT); TEV protease cleavage site (N); made in house; host or cells: E. coli BL21 DE3
As to the kind of experiment: Increase of stability of STING protein against thermal denaturation, Differential Scanning Fluorimetry (DSF). The method, boiled down:
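3 µM His-tagged protein with 100 uM compound, 5×SYPRO Orange, 2% DMSO in 20 mM Tris, 150 mM NaCl, pH7.5; 15–95 °C ramp in 0.5 °C steps (15 s/cycle). Tm from Boltzmann fit of the dye melt curve, duplicates averaged, repeated if SD>1.5 °C; ΔTm = Tm with compound minus Tm of protein alone.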

The target in assay [2] is T2, human STING WT (R232) (Homo sapiens, UniProt Q86WV6, H232R).
T2 construct: purchased Cisbio 64BDSTGPEG
As to the kind of experiment: Human STING HTRF binding assay (competitive, Cisbio 64BDSTGPEG). The method, boiled down: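 Competitive HTRF: 6His-tagged human STING WT R232 binding domain (residues 138-379) with anti-6His Cryptate antibody and d2-labeled STING ligand, 180 min at room temperature, 1% DMSO, 8 concentrations from 10 μM or 1 μM top in ~1:5 steps. HTRF ratios were calibrated to a cGAMP standard curve and IC50 obtained by 4-parameter logistic fit.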
For orientation: TR-FRET usually uses a lanthanide donor and a delayed reading to cut background.

For orientation: IC50 means the concentration at which inhibition is half-maximal.

T1 sequence (Q86WV6 with tags, fused parts or gaps H232R): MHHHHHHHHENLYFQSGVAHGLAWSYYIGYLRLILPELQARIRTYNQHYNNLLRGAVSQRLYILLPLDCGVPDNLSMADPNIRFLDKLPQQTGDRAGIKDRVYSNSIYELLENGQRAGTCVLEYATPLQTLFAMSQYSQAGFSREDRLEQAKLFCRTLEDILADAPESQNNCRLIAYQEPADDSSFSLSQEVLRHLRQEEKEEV
T2 sequence (Q86WV6 138-379 H232R): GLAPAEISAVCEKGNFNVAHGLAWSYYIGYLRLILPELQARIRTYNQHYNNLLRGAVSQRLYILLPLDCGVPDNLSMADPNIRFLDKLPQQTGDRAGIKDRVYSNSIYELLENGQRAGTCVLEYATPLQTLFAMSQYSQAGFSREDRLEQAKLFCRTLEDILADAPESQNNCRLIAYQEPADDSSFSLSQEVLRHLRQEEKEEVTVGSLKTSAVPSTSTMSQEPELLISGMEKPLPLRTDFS

In assay [1], `CNc1nc2nn(C)cc2cc1-n1nc(-c2cccc3nn(C[C@H](O)c4ccccc4)cc23)c(C(C)C)c1C` [Example 84, (1R)-2-(4-{5-methyl-1-[2-methyl-6-(methylamino)-2H-pyrazolo[3,4-b]pyridin-5-yl]-4-(propan-2-yl)-1H-pyrazol-3-yl}-2H-indazol-2-yl)-1-phenylethan-1-ol] displayed a DSF of 27 K. The same compound returned an IC50 in assay [2] of 21 nM.

On to `Cc1nc2nn(C)cc2cc1-n1nc(-c2cccc3nn(CC(O)C4CCCCC4)cc23)c(C(C)C)c1C` (centres unmarked) [Example 83, 1-cyclohexyl-2-[4-(1-{2,6-dimethyl-2H-pyrazolo[3,4-b]pyridin-5-yl}-5-methyl-4-(propan-2-yl)-1H-pyrazol-3-yl)-2H-indazol-2-yl]ethan-1-ol], for which the DSF in assay [1] was 24 K. Moreover, the IC50 in assay [2] stood at 23.7 nM.

`[2H][C@](O)(Cn1cc2c(-c3nn(-c4cc5cn(C)nc5nc4C)c(C)c3C(C)C)cccc2n1)c1ccccc1` [Example 3, (1R)-2-[4-(1-{2,6-dimethyl-2H-pyrazolo[3,4-b]pyridin-5-yl}-5-methyl-4-(propan-2-yl)-1H-pyrazol-3-yl)-2H-indazol-2-yl]-1-phenyl(1-^2H)ethan-1-ol] displayed a DSF in assay [1] of 28 K. This compound also showed an IC50 in assay [2] of 5.1 nM.

`Cc1nc2nn(C)cc2cc1-n1nc(-c2cccc3nn(C[C@H](OCCF)c4ccccc4)cc23)c(C(C)C)c1C` [Example 78, 4-(1-{2,6-dimethyl-2H-pyrazolo[3,4-b]pyridin-5-yl}-5-methyl-4-(propan-2-yl)-1H-pyrazol-3-yl)-2-[(2R)-2-(2-fluoroethoxy)-2-phenylethyl]-2H-indazole]: the DSF in assay [1] came out at 24 K. In addition, the IC50 in assay [2] is 16.7 nM.

Turning to `Cn1cc([C@@H](O)Cn2cc3c(-c4nc(-c5cc6cn(C)nc6nc5C5CC5)n(C)c4C4CC4)cccc3n2)cn1` [Example 91, (1R)-2-[4-(5-cyclopropyl-2-{6-cyclopropyl-2-methyl-2H-pyrazolo[3,4-b]pyridin-5-yl}-1-methyl-1H-imidazol-4-yl)-2H-indazol-2-yl]-1-(1-methyl-1H-pyrazol-4-yl)ethan-1-ol], in assay [1], the DSF is reported as 29 K. For the same compound, the half-inhibitory concentration (IC50) in assay [2] stood at 7.6 nM.

Take `Cc1cc([C@@H](O)Cn2cc3c(-c4nn(-c5cc6cn(C)nc6nc5C)c(C)c4C(C)C)cccc3n2)ccn1` [Example 82, (1R)-2-[4-(1-{2,6-dimethyl-2H-pyrazolo[3,4-b]pyridin-5-yl}-5-methyl-4-(propan-2-yl)-1H-pyrazol-3-yl)-2H-indazol-2-yl]-1-(2-methylpyridin-4-yl)ethan-1-ol]: the DSF in assay [1] turned out to be 27 K. In addition, in assay [2], the IC50 amounted to 3.2 nM.

The compound `Cc1c(-n2nc(-c3cccc4nn(C[C@H](O)c5ccccc5)cc34)c(C(C)C)c2C)ccn2c(C)cnc12` [Example 94, (1R)-2-[4-(1-{3,8-dimethylimidazo[1,2-a]pyridin-7-yl}-5-methyl-4-(propan-2-yl)-1H-pyrazol-3-yl)-2H-indazol-2-yl]-1-phenylethan-1-ol] displayed a DSF in assay [1] of 27 K. For the same compound, in assay [2], the 50% inhibitory concentration (IC50) was 17.1 nM.

In assay [1], `COC(C)c1nc2nn(C)cc2cc1-n1nc(-c2cccc3nn(C[C@H](O)c4ccccc4)cc23)c(C(C)C)c1C` (some centres unmarked) [Example 75] returned a DSF of 28 K. In assay [2], this compound gave an IC50 of 9.8 nM.

In turn, `Cc1nc2nn(C)cc2cc1-n1nc(-c2cccc3nn(C[C@H](O)c4ccccc4)cc23)c(C(C)CO)c1C` (stereo partly drawn) [Example 95, 2-(1-{2,6-dimethyl-2H-pyrazolo[3,4-b]pyridin-5-yl}-3-{2-[(2R)-2-hydroxy-2-phenylethyl]-2H-indazol-4-yl}-5-methyl-1H-pyrazol-4-yl)propan-1-ol] showed a DSF in assay [1] of 24 K. This compound returned an IC50 in assay [2] of 11.4 nM.

For the compound `CCCO[C@@H](Cn1cc2c(-c3nn(-c4cc5cn(C)nc5nc4C)c(C)c3C(C)C)cccc2n1)c1ccccc1` [Example 81, 4-(1-{2,6-dimethyl-2H-pyrazolo[3,4-b]pyridin-5-yl}-5-methyl-4-(propan-2-yl)-1H-pyrazol-3-yl)-2-[(2R)-2-phenyl-2-propoxyethyl]-2H-indazole], the DSF in assay [1] stood at 22 K. The half-inhibitory concentration (IC50) in assay [2] came out at 31.1 nM.

Regarding `COCCO[C@@H](Cn1cc2c(-c3nn(-c4cc5cn(C)nc5nc4C)c(C)c3C(C)C)cccc2n1)c1ccccc1` [Example 85, 4-(1-{2,6-dimethyl-2H-pyrazolo[3,4-b]pyridin-5-yl}-5-methyl-4-(propan-2-yl)-1H-pyrazol-3-yl)-2-[(2R)-2-(2-methoxyethoxy)-2-phenylethyl]-2H-indazole], the DSF in assay [1] worked out at 23 K. Also, in assay [2], the half-maximal inhibitory concentration (IC50) was determined as 15.9 nM.

For the compound `Cc1nc2nn(C)cc2cc1-n1nc(-c2cccc3nn(C[C@H](O)c4ccccc4)cc23)c(C2(C)CC2)c1C` [Example 92, (1R)-2-[4-(1-{2,6-Dimethyl-2H-pyrazolo[3,4-b]pyridin-5-yl}-5-methyl-4-(1-methylcyclopropyl)-1H-pyrazol-3-yl)-2H-indazol-2-yl]-1-phenylethan-1-ol], in assay [1], the DSF worked out at 24 K. For the same compound, in assay [2], the concentration for half-maximal inhibition (IC50) was determined as 4.3 nM.

`Cc1c(-n2nc(-c3cccc4nn(C[C@H](O)c5ccccc5)cc34)c(C(C)C)c2C)ccn2c(C)nnc12` [Example 86, (1R)-2-[4-(1-{3,8-dimethyl-[1,2,4]triazolo[4,3-a]pyridin-7-yl}-5-methyl-4-(propan-2-yl)-1H-pyrazol-3-yl)-2H-indazol-2-yl]-1-phenylethan-1-ol] registered a DSF in assay [1] of 28 K. The compound further had a 50% inhibitory concentration (IC50) in assay [2] of 6.9 nM.

In assay [1], `Cc1c(C(C)C)c(-c2cccc3nn(C[C@H](O)c4ccccc4)cc23)nn1-c1cc2cn(C)nc2nc1C1(C)CC1` [Example 80, (1R)-2-(4-{5-methyl-1-[2-methyl-6-(1-methylcyclopropyl)-2H-pyrazolo[3,4-b]pyridin-5-yl]-4-(propan-2-yl)-1H-pyrazol-3-yl}-2H-indazol-2-yl)-1-phenylethan-1-ol] gave a DSF of 26 K. This compound registered an IC50 in assay [2] of 17.5 nM.

Compound `Cc1c(C(C)C)c(-c2cccc3nn(C[C@H](O)c4ccccc4)cc23)nn1-c1cc2cn(C)nc2nc1N(C)C` [Example 87, (1R)-2-(4-{1-[6-(dimethylamino)-2-methyl-2H-pyrazolo[3,4-b]pyridin-5-yl]-5-methyl-4-(propan-2-yl)-1H-pyrazol-3-yl}-2H-indazol-2-yl)-1-phenylethan-1-ol] gave a DSF in assay [1] of 24 K. In addition, the IC50 in assay [2] is 20.2 nM.

Compound `CCc1c(-c2cccc3nn(C[C@H](O)c4ccccc4)cc23)nn(-c2cc3cn(C)nc3nc2C)c1CC` [Example 93, (1R)-2-[4-(1-{2,6-dimethyl-2H-pyrazolo[3,4-b]pyridin-5-yl}-4,5-diethyl-1H-pyrazol-3-yl)-2H-indazol-2-yl]-1-phenylethan-1-ol] showed a DSF in assay [1] of 26 K. The same compound had a concentration for half-maximal inhibition (IC50) in assay [2] of 17.4 nM.

`Cc1c(C(C)C)c(-c2cccc3nn(C[C@H](O)c4ccccc4)cc23)nn1-c1cc2cn(C)nc2nc1C(C)(C)O` [Example 89, 2-[5-(3-{2-[(2R)-2-hydroxy-2-phenylethyl]-2H-indazol-4-yl}-5-methyl-4-(propan-2-yl)-1H-pyrazol-1-yl)-2-methyl-2H-pyrazolo[3,4-b]pyridin-6-yl]propan-2-ol]: the DSF in assay [1] is 24 K. This compound also gave an IC50 in assay [2] of 17.2 nM.

For `Cc1nc2nn(C)cc2cc1-n1nc(-c2cccc3nn(CC(O)c4ccc(Br)cc4)cc23)c(C(C)C)c1C` (centres unmarked) [Example 88, 1-(4-Bromophenyl)-2-[4-(1-{2,6-dimethyl-2H-pyrazolo[3,4-b]pyridin-5-yl}-5-methyl-4-(propan-2-yl)-1H-pyrazol-3-yl)-2H-indazol-2-yl]ethan-1-ol], in assay [1], the DSF amounted to 25 K. In assay [2], this compound registered an IC50 of 97.9 nM.

On to `Cn1cc2cc(-c3nc(-c4cccc5nn(C[C@H](O)c6ccc(OCC#N)cc6)cc45)c(C4CC4)n3C)c(C3CC3)nc2n1` [Example 90, 2-{4-[(1R)-2-[4-(5-cyclopropyl-2-{6-cyclopropyl-2-methyl-2H-pyrazolo[3,4-b]pyridin-5-yl}-1-methyl-1H-imidazol-4-yl)-2H-indazol-2-yl]-1-hydroxyethyl]phenoxy} acetonitrile], for which the DSF in assay [1] is recorded as 29 K. The compound further had a 50% inhibitory concentration (IC50) in assay [2] of 19.9 nM.

In assay [1], `Cc1c(C(C)C)c(-c2cccc3nn(C[C@H](O)c4ccccc4)cc23)nn1-c1ccn2c(C(F)F)nnc2c1C1CC1` [Example 76] displayed a DSF of 26 K. The compound also gave an IC50 in assay [2] of 17.4 nM.

Consider `Cc1nc2nn(C)cc2cc1-n1nc(-c2cccc3nn(C[C@H](OCCC(C)(C)O)c4ccccc4)cc23)c(C(C)C)c1C` [Example 74, 4-[(1R)-2-[4-(1-{2,6-dimethyl-2H-pyrazolo[3,4-b]pyridin-5-yl}-5-methyl-4-(propan-2-yl)-1H-pyrazol-3-yl)-2H-indazol-2-yl]-1-phenylethoxy]-2-methylbutan-2-ol], for which the DSF in assay [1] turned out to be 25 K. The compound also had a concentration for half-maximal inhibition (IC50) in assay [2] of 16.9 nM.

In assay [1], `C=CCO[C@@H](Cn1cc2c(-c3nn(-c4cc5cn(C)nc5nc4C)c(C)c3C(C)C)cccc2n1)c1ccccc1` [Example 79, 4-(1-{2,6-dimethyl-2H-pyrazolo[3,4-b]pyridin-5-yl}-5-methyl-4-(propan-2-yl)-1H-pyrazol-3-yl)-2-[(2R)-2-phenyl-2-(prop-2-en-1-yloxy)ethyl]-2H-indazole] yielded a DSF of 23 K. The compound also had an IC50 in assay [2] of 20.1 nM.
